Source: patent publication US20110112104A1, “TRICYCLIC COMPOUNDS, A PROCESS FOR THEIR PREPARATION AND PHARMACEUTICAL COMPOSITIONS CONTAINING THEM” (LES LABORATOIRES SERVIER, priority 2008, published 2011)

System: caspase 3
Assay: Induction of caspase activity in vitro
Assay type: cell-based, human
Details: H146 small-cell lung carcinoma cells, compound at 10 μM, 6 hours exposure
Procedure: This study was carried out on the following human tumour cell line: • 1 small-cell lung carcinoma, H146. This cell line is cultured in an incubator at 37° C. in the presence of 5% CO2. More specifically, the H146 cells are cultured in complete RPMI 1640 medium containing 10% foetal calf serum, 2 mM glutamine, 50 units/ml of penicillin, 50 μg/ml of streptomycin and 10 mM Hepes buffer, pH=7.4. The cells are distributed onto 6-well plates and exposed to the test compounds for 6 hours. They are then collected and lysed and the caspase activity is measured in the cell lysates. This enzymatic measurement is carried out by measuring the appearance of a fluorigenic cleavage product (Pharmacia).

| SMILES | caspase 3 activity in cell lysates |
| --- | --- |
| CN(C)CC[C@H](CSc1ccccc1)Nc1ccc(S(=O)(=O)NC(=O)c2cnc3c(c2)CC2CN(Cc4ccccc4-c4ccc(Cl)cc4)CCN32)cc1[N+](=O)[O-].Cl.Cl.Cl (stereo partly drawn) [Example 3, N-({7-[(4′-Chloro[1,1′-biphenyl]-2-yl)methyl]-5,5a,6,7,8,9-hexahydropyrido[3′,2′:4,5]pyrrolo[1,2-a]pyrazin-3-yl}carbonyl)-4-({(1R)-3-(dimethylamino)-1-[(phenylsulphanyl)methyl]propyl}amino)-3-nitro-benzenesulphonamide trihydrochloride] | 17776 RFU (Relative Fluorescence Units) |
| CN(C)CC[C@H](CSc1ccccc1)Nc1ccc(S(=O)(=O)NC(=O)c2ccc3c(n2)CC2CN(Cc4ccccc4-c4ccc(Cl)cc4)CCN32)cc1[N+](=O)[O-].Cl.Cl (stereo partly drawn) [Example 2, N-({8-[(4′-Chloro[1,1′-biphenyl]-2-yl)methyl]-6,7,8,9,9a,10-hexahydropyrido[2′,3′:4,5]pyrrolo[1,2-a]pyrazin-2-yl}carbonyl)-4-({(1R)-3-(dimethylamino)-1-[(phenylsulphanyl)methyl]propyl}amino)-3-nitro-benzenesulphonamide dihydrochloride] | 9948 RFU (Relative Fluorescence Units) |
| CN(C)CC[C@H](CSc1ccccc1)Nc1ccc(S(=O)(=O)NC(=O)c2cc3c(cn2)N2CCN(Cc4ccccc4-c4ccc(Cl)cc4)CC2C3)cc1[N+](=O)[O-].Cl.Cl.Cl (stereo partly drawn) [Example 1, N-({2-[(4′-Chloro[1,1′-biphenyl]-2-yl)methyl]-1,2,3,4,10,10a-hexahydropyrido[4′,3′:4,5]pyrrolo[1,2-a]pyrazin-8-yl}carbonyl)-4-({(1R)-3-(dimethylamino)-1-[(phenylsulphanyl)methyl]propyl}amino)-3-nitro-benzenesulphonamide trihydrochloride] | 15395 RFU (Relative Fluorescence Units) |
